Laboratory results taken from the NIST ThermoML archive (doi:10.1021/acs.jced.7b00221).

Assay: xn = mol fraction of the nth substance listed
Settings: 100 kPa, Liquid; for viscosity: Cone and plate viscometry; for mass density: Vibrating tube method

CCn1cc[n+](C)c1.O=S(=O)([N-]S(=O)(=O)C(F)(F)F)C(F)(F)F + CCCCCC[n+]1ccn(C)c1.O=S(=O)([N-]S(=O)(=O)C(F)(F)F)C(F)(F)F
Settings | mass density [kg/m3] | viscosity [mPa·s]
278.15 K, x2 = 0 | – | 80
278.15 K, x2 = 0.15 | – | 89
278.15 K, x2 = 0.3 | – | 95
278.15 K, x2 = 0.5 | – | 120
278.15 K, x2 = 0.7 | – | 153
278.15 K, x2 = 0.85 | – | 181
283.15 K, x2 = 0 | 1534.1 | 63
283.15 K, x2 = 0.15 | 1507.1 | 70
283.15 K, x2 = 0.3 | 1481.8 | 74
283.15 K, x2 = 0.5 | 1451 | 92
283.15 K, x2 = 0.7 | 1422.9 | 116
283.15 K, x2 = 0.85 | 1403.6 | 135
288.15 K, x2 = 0 | 1529 | 50
288.15 K, x2 = 0.15 | 1502.1 | 56
288.15 K, x2 = 0.3 | 1476.9 | 58
288.15 K, x2 = 0.5 | 1446.3 | 72
288.15 K, x2 = 0.7 | 1418.2 | 89
288.15 K, x2 = 0.85 | 1399 | 102
293.15 K, x2 = 0 | 1523.9 | –
293.15 K, x2 = 0.15 | 1497.1 | –
293.15 K, x2 = 0.3 | 1472 | –
293.15 K, x2 = 0.5 | 1441.5 | 58
293.15 K, x2 = 0.7 | 1413.5 | 70
293.15 K, x2 = 0.85 | 1394.4 | 79
295.15 K, x2 = 0 | 1521.9 | –
295.15 K, x2 = 0.15 | 1495.1 | –
295.15 K, x2 = 0.3 | 1470.1 | –
295.15 K, x2 = 0.5 | 1439.6 | –
295.15 K, x2 = 0.7 | 1411.6 | –
295.15 K, x2 = 0.85 | 1392.5 | –
298.15 K, x2 = 0 | 1518.9 | –
298.15 K, x2 = 0.15 | 1492.2 | –
298.15 K, x2 = 0.3 | 1467.2 | –
298.15 K, x2 = 0.5 | 1436.7 | –
298.15 K, x2 = 0.7 | 1408.8 | 57
298.15 K, x2 = 0.85 | 1389.7 | 63
303.15 K, x2 = 0 | 1513.9 | –
303.15 K, x2 = 0.15 | 1487.2 | –
303.15 K, x2 = 0.3 | 1462.3 | –
303.15 K, x2 = 0.5 | 1431.9 | –
303.15 K, x2 = 0.7 | 1404.1 | –
303.15 K, x2 = 0.85 | 1385.1 | 51
308.15 K, x2 = 0 | 1508.9 | –
308.15 K, x2 = 0.15 | 1482.3 | –
308.15 K, x2 = 0.3 | 1457.5 | –
308.15 K, x2 = 0.5 | 1427.2 | –
308.15 K, x2 = 0.7 | 1399.5 | –
308.15 K, x2 = 0.85 | 1380.5 | –
313.15 K, x2 = 0 | 1503.9 | –
313.15 K, x2 = 0.15 | 1477.4 | –
313.15 K, x2 = 0.3 | 1452.7 | –
313.15 K, x2 = 0.5 | 1422.5 | –
313.15 K, x2 = 0.7 | 1394.8 | –
313.15 K, x2 = 0.85 | 1375.9 | –
318.15 K, x2 = 0 | 1499 | –
318.15 K, x2 = 0.15 | 1472.5 | –
318.15 K, x2 = 0.3 | 1447.9 | –
318.15 K, x2 = 0.5 | 1417.8 | –
318.15 K, x2 = 0.7 | 1390.1 | –
318.15 K, x2 = 0.85 | 1371.3 | –
323.15 K, x2 = 0 | 1494.1 | –
323.15 K, x2 = 0.15 | 1467.7 | –
323.15 K, x2 = 0.3 | 1443.1 | –
323.15 K, x2 = 0.5 | 1413.1 | –
323.15 K, x2 = 0.7 | 1385.5 | –
323.15 K, x2 = 0.85 | 1366.8 | –
328.15 K, x2 = 0 | 1489.1 | –
328.15 K, x2 = 0.15 | 1462.8 | –
328.15 K, x2 = 0.3 | 1438.3 | –
328.15 K, x2 = 0.5 | 1408.4 | –
328.15 K, x2 = 0.7 | 1380.9 | –
328.15 K, x2 = 0.85 | 1362.2 | –
333.15 K, x2 = 0 | 1484.2 | –
333.15 K, x2 = 0.15 | 1458 | –
333.15 K, x2 = 0.3 | 1433.5 | –
333.15 K, x2 = 0.5 | 1403.7 | –
333.15 K, x2 = 0.7 | 1376.2 | –
333.15 K, x2 = 0.85 | 1357.7 | –
338.15 K, x2 = 0 | 1479.3 | –
338.15 K, x2 = 0.15 | 1453.2 | –
338.15 K, x2 = 0.3 | 1428.8 | –
338.15 K, x2 = 0.5 | 1399 | –
338.15 K, x2 = 0.7 | 1371.6 | –
338.15 K, x2 = 0.85 | 1353.2 | –
343.15 K, x2 = 0 | 1474.4 | –
343.15 K, x2 = 0.15 | 1448.4 | –
343.15 K, x2 = 0.3 | 1424.1 | –
343.15 K, x2 = 0.5 | 1394.4 | –
343.15 K, x2 = 0.7 | 1367 | –
343.15 K, x2 = 0.85 | 1348.6 | –
348.15 K, x2 = 0 | 1469.6 | –
348.15 K, x2 = 0.15 | 1443.6 | –
348.15 K, x2 = 0.3 | 1419.4 | –
348.15 K, x2 = 0.5 | 1389.8 | –
348.15 K, x2 = 0.7 | 1362.3 | –
348.15 K, x2 = 0.85 | 1344.1 | –
353.15 K, x2 = 0 | 1464.7 | –
353.15 K, x2 = 0.15 | 1438.8 | –
353.15 K, x2 = 0.3 | 1414.7 | –
353.15 K, x2 = 0.5 | 1385.2 | –
353.15 K, x2 = 0.7 | 1357.7 | –
353.15 K, x2 = 0.85 | 1339.7 | –
